From BindingDB's records for doi:10.1016/s0960-894x(03)00330-5 (The University of Georgia, 2003)

Assays:
[1] = In vitro antiviral activity against HIV-1 Reverse transcriptase wild type
[2] = In vitro antiviral activity against HIV-1 Reverse transcriptase M184V mutant

`Cc1cn([C@H]2C=C[C@@H](CO)O2)c(=O)[nH]c1=O` [2',3'-didehydro-3'-deoxythymidine] showed an EC50 [1] of 450 nM and an EC50 [2] of 500 nM.

With `Nc1nc(=O)n([C@@H]2C=C[C@H](CO)O2)cc1F` [ACH-126443] the EC50 [1] was 180 nM and the EC50 [2] was 140 nM.

In the case of `Nc1ccn([C@@H]2CS[C@H](CO)O2)c(=O)n1` [Epivir], the EC50 [1] is reported as 42 nM and the EC50 [2] is reported as greater than 50000 nM.
